Activity calls are given as the source filed them. The rule behind the calls is not given here.
What was measured:
[1] = molecular target: T1, D(1A) dopamine receptor (Homo sapiens, UniProt P21728); experiment: Displacement of [3H]SCH 23390 from human cloned dopamine D1 receptor expressed in HEK 293 cells; type: cell-based, HEK293
[2] = molecular target: T2, D(2) dopamine receptor (Homo sapiens, UniProt P14416); experiment: Displacement of [3H]spiperone from human cloned dopamine D2L receptor expressed in CHO cells; type: cell-based
[3] = molecular target: D(3) dopamine receptor (Homo sapiens, UniProt P35462); experiment: Binding affinity to human cloned dopamine D3 receptor expressed in CHO cells; type: cell-based
[4] = Binding affinity to human cloned dopamine D4.4 receptor expressed in CHO cells; type: cell-based
[5] = molecular target: T3, D(1B) dopamine receptor (Homo sapiens, UniProt P21918); experiment: Binding affinity to human cloned dopamine D5 receptor expressed in HEK 293 cells; type: cell-based, HEK293
[6] = molecular target: T1, D(1A) dopamine receptor; experiment: Agonist activity at human dopamine D1 receptor assessed as increase in […] calcium concentration by calcium fluorescence assay; type: functional
[7] = molecular target: T3, D(1B) dopamine receptor; experiment: Agonist activity at human dopamine D5 receptor assessed as increase in […] calcium concentration by calcium fluorescence assay; type: functional
[8] = molecular target: T2, D(2) dopamine receptor; experiment: Agonist activity at human dopamine D2 receptor assessed as increase in […] calcium concentration by calcium fluorescence assay; type: functional
[9] = molecular target: T2, D(2) dopamine receptor; experiment: Activity at human dopamine D2 receptor assessed as quinpirol-induced suppression of calcium signal by calcium fluorescence assay; type: functional
[10] = molecular target: T3, D(1B) dopamine receptor; experiment: Activity at human dopamine D5 receptor assessed as SKF 38393-induced suppression of calcium signal by calcium fluorescence assay; type: functional

T3 sequence (P21918 whole entry): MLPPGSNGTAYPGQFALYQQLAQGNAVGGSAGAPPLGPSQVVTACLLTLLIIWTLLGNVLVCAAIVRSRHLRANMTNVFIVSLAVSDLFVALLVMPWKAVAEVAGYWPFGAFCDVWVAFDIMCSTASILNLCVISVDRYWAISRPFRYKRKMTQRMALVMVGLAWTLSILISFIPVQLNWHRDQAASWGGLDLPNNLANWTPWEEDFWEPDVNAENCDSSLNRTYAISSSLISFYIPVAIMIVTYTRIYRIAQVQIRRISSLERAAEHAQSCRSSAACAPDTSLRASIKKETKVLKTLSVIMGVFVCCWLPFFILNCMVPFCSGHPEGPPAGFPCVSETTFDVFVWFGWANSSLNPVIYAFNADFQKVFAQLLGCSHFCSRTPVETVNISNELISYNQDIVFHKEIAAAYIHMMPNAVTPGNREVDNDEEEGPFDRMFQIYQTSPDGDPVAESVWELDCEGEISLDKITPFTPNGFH
T1 sequence (P21728 whole entry): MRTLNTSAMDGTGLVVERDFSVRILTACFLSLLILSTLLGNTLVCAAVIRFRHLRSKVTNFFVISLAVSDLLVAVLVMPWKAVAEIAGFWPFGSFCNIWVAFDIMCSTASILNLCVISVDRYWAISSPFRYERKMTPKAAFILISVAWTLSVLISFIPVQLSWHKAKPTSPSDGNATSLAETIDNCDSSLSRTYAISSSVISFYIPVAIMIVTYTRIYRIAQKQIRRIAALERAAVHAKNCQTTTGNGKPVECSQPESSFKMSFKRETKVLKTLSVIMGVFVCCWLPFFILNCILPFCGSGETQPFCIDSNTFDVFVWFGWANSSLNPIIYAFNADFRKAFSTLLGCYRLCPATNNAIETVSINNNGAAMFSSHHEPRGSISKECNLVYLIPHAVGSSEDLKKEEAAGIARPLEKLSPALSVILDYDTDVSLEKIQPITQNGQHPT
Sequence of D(3) dopamine receptor (P35462 whole entry): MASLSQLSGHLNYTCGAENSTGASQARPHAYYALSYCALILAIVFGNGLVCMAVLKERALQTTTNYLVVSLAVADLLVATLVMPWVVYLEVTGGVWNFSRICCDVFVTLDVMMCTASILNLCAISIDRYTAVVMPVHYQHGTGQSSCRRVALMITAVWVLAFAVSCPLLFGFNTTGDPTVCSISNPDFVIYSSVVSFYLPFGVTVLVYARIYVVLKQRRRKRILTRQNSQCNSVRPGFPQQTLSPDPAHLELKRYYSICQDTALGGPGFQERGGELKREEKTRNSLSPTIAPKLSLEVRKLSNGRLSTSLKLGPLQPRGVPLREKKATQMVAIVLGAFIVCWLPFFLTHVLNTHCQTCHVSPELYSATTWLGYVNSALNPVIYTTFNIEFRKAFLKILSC
T2 sequence (P14416 whole entry): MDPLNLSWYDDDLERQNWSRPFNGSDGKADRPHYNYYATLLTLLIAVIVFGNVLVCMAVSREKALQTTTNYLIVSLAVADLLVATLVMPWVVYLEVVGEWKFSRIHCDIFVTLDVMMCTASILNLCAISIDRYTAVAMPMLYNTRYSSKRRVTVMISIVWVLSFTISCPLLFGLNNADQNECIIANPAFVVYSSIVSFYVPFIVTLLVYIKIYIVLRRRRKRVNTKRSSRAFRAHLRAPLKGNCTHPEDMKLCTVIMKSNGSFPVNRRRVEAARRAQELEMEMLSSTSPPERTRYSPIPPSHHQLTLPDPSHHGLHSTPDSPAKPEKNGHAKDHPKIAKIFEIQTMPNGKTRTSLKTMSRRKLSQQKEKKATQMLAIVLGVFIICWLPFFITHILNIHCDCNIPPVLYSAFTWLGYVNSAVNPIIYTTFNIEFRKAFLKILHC

Structure (SMILES)	Ki [1] [µM]	Ki [2] [µM]	Ki [3] [µM]	Ki [4] [µM]	Ki [5] [µM]	Activity [6]	Activity [7]	Activity [8]	Activity [9]	Activity [10]
CN1CCc2ccccc2Cc2[nH]c3ccc(O)cc3c2CC1	0.00056	0.0384	0.944	0.398	0.00039	–	–	–	–	–
CN1CCc2ccccc2Cc2ccc(O)cc2CC1	–	–	–	–	–	inactive	inactive	–	–	–
COc1ccc2[nH]c3c(c2c1)CCN(C)CCc1ccccc1C3	0.00082	0.0119	0.475	0.266	0.0036	–	–	–	–	–
COc1ccc2c(c1)CCN(C)CCc1c([nH]c3ccccc13)C2	0.019	0.0228	1.14	0.0926	0.0315	–	–	–	–	–
CN1CCc2ccccc2Cc2[nH]c3ccccc3c2CC1	–	–	0.0403	0.109	–	inactive	inactive	inactive	Active	Active
COc1ccc2c(c1)c1c(n2C)Cc2ccccc2CCN(C)CC1	0.002	0.0017	0.00378	0.0215	0.00023	–	–	–	–	–
COc1ccc2c(c1)CCN(C)CCc1ccccc1C2	–	–	–	0.0434	0.0383	–	–	–	–	–
CN1CCc2cc(O)ccc2Cc2[nH]c3ccccc3c2CC1	0.0037	0.0747	2.07	1.36	0.0054	–	–	–	–	–
